Tests used:
Format in all cases: cell-based
[1] = biological target: Voltage-gated inwardly rectifying potassium channel KCNH2 (Homo sapiens, UniProt Q12809); experiment: Binding affinity to wild type human ERG expressed in HEK293 cells assessed as inhibition of tail current measured upon repolarization to -40 mV by patch clamp method
[2] = biological target: T1, Voltage-gated inwardly rectifying potassium channel KCNH2 (Homo sapiens, UniProt Q12809, F656A); experiment: Binding affinity to human ERG F656A tetrameric mutant expressed in HEK293 cells assessed as inhibition of tail current measured upon repolarization to -120 mV by patch clamp method
[3] = biological target: T2, Voltage-gated inwardly rectifying potassium channel KCNH2 (Homo sapiens, UniProt Q12809, Y652A); experiment: Binding affinity to human ERG Y652A tetrameric mutant expressed in HEK293 cells assessed as inhibition of tail current measured upon repolarization to -40 mV by patch clamp method
[4] = biological target: T1, Voltage-gated inwardly rectifying potassium channel KCNH2; experiment: Binding affinity to human ERG F656A tandem dimeric mutant expressed in HEK293 cells assessed as inhibition of tail current measured upon repolarization to -120 mV by patch clamp method
[5] = biological target: Voltage-gated inwardly rectifying potassium channel KCNH2 (Homo sapiens, UniProt Q12809, S624A); experiment: Binding affinity to human ERG S624A tetrameric mutant expressed in HEK293 cells assessed as inhibition of tail current measured upon repolarization to -40 mV by patch clamp method
[6] = biological target: T2, Voltage-gated inwardly rectifying potassium channel KCNH2; experiment: Binding affinity to human ERG Y652A tandem dimeric mutant expressed in HEK293 cells assessed as inhibition of tail current measured upon repolarization to -40 mV by patch clamp method

T2 sequence (Q12809 whole entry Y652A): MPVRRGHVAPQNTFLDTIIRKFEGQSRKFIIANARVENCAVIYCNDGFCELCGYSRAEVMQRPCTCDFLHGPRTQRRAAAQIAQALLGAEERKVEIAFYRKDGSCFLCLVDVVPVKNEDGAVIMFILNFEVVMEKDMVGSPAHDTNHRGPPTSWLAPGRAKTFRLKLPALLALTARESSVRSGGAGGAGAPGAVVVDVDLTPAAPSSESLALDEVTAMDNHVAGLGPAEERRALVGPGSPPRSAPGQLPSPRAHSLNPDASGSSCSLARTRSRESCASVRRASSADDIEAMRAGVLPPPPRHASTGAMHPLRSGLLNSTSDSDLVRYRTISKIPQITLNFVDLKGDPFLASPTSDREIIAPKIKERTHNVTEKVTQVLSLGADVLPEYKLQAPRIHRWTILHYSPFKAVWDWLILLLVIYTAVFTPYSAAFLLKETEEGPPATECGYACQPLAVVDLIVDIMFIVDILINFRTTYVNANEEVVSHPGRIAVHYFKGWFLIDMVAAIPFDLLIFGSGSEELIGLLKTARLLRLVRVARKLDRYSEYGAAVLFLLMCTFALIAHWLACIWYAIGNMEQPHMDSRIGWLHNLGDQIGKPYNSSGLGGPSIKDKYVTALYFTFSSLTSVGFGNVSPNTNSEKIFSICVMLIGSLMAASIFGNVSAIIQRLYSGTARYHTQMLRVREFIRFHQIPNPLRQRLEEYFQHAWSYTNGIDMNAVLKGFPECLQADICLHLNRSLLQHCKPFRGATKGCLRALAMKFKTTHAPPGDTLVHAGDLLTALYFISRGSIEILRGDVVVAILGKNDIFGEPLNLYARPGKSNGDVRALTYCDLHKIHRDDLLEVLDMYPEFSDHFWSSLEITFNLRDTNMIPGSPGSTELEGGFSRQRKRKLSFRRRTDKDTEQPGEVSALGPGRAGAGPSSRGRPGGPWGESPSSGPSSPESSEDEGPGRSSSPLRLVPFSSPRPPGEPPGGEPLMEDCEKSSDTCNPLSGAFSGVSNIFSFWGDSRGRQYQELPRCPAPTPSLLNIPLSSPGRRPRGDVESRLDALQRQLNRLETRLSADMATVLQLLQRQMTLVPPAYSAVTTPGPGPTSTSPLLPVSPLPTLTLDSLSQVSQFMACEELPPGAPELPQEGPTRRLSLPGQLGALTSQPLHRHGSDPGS
T1 sequence (Q12809 whole entry F656A): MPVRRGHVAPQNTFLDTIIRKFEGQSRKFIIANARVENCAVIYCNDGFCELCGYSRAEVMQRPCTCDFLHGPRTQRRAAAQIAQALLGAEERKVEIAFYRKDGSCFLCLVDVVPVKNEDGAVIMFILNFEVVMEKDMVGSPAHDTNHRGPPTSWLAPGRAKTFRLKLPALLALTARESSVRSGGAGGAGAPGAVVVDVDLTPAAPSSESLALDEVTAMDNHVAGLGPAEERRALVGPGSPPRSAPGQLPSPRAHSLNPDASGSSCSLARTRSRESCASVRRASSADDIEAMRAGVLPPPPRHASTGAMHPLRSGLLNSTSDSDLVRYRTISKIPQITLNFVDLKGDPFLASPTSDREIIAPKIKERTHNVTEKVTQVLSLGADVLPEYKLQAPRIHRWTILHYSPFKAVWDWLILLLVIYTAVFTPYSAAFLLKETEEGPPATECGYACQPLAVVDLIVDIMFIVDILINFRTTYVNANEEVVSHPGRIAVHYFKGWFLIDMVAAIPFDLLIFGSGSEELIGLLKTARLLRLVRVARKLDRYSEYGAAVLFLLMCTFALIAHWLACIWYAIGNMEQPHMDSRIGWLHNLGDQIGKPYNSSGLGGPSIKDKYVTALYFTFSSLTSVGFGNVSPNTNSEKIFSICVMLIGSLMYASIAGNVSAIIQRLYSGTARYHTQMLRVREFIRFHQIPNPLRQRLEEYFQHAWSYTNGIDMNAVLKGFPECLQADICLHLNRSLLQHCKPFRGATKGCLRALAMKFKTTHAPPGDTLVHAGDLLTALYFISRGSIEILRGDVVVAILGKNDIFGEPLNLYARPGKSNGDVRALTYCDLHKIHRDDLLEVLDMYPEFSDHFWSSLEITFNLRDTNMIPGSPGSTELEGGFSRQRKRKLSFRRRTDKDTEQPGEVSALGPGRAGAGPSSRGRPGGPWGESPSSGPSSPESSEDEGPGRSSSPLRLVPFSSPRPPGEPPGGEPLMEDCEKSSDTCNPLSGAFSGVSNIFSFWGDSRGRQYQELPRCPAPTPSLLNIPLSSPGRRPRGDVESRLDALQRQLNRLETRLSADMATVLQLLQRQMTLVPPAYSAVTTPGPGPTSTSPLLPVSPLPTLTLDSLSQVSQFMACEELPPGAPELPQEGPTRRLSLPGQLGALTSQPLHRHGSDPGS
Chain of Voltage-gated inwardly rectifying potassium channel KCNH2 (Homo sapiens, UniProt Q12809, S624A) (Q12809 whole entry S624A): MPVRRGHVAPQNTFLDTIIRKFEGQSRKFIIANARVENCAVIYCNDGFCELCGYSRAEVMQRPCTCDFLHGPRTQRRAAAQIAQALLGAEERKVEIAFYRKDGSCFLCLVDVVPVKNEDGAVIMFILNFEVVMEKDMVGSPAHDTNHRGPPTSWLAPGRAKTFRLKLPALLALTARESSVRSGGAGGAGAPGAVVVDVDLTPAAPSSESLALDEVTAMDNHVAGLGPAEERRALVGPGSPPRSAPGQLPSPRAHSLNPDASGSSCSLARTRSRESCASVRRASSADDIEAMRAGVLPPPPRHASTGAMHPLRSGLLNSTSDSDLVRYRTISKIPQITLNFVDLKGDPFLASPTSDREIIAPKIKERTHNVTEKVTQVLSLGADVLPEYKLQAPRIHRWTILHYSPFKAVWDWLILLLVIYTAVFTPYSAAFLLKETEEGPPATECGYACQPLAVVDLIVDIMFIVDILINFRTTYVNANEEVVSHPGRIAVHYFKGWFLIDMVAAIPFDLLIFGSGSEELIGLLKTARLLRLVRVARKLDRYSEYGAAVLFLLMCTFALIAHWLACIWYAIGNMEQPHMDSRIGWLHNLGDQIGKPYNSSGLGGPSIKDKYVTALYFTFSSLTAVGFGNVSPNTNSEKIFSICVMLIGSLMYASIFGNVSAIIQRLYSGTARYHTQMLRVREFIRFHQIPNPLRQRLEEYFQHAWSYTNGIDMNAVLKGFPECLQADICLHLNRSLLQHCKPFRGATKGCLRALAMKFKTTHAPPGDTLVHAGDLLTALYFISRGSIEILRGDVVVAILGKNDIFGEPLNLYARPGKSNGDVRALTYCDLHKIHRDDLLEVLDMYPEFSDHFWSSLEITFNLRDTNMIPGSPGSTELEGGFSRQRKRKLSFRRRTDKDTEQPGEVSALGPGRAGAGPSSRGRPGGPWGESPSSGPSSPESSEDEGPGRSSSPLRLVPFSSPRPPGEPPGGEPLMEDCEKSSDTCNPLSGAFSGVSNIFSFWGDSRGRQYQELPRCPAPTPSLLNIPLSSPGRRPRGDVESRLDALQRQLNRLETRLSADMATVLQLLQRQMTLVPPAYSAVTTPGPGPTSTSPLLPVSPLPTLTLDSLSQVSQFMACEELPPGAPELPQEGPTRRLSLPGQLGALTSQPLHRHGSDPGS
Chain of Voltage-gated inwardly rectifying potassium channel KCNH2 (Homo sapiens, UniProt Q12809) (Q12809 whole entry): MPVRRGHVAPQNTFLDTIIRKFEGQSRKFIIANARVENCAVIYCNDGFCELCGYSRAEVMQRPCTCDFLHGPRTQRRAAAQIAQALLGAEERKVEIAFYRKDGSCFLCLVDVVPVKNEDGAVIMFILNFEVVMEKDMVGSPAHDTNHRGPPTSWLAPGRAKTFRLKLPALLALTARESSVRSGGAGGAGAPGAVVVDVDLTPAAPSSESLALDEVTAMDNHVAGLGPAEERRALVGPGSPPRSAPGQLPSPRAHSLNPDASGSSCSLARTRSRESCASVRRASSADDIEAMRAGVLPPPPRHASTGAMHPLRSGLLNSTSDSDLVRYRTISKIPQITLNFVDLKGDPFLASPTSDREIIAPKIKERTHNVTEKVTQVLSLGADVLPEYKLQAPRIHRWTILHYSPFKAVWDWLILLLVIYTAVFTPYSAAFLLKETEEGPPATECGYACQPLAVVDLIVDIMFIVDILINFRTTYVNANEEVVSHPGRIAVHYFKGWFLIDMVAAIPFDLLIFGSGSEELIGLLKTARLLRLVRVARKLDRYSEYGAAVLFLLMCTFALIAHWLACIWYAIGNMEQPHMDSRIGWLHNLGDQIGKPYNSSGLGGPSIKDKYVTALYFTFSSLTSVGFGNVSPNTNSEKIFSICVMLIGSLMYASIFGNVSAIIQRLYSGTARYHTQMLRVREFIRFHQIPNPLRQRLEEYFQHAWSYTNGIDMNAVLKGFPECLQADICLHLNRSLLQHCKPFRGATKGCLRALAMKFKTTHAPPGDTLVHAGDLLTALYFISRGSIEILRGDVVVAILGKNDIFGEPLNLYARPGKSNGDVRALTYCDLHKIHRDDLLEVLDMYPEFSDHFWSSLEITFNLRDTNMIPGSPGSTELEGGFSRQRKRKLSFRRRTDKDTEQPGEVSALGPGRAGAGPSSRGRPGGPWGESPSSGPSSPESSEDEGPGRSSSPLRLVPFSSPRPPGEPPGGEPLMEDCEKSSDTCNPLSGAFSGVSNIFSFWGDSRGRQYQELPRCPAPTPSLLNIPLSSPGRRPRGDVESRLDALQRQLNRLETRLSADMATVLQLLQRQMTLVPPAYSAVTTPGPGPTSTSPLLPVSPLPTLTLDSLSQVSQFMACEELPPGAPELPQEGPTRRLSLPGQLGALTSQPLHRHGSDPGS

In the case of `C[C@@H]1CN(c2c(F)c(N)c3c(=O)c(C(=O)O)cn(C4CC4)c3c2F)C[C@H](C)N1` [SPARFLOXACIN], the IC50 [1] is reported as 21.7 µM, the IC50 [2] is reported as greater than 250 µM and the IC50 [3] is reported as greater than 250 µM. The IC50 [4] was 33.6 µM, the IC50 [5] was 46.9 µM and the IC50 [6] was 128 µM.
